Results reported in patent US20260193293A1, “PEPTIDES CAPABLE OF INHIBITING PROTEIN-PROTEIN INTERACTIONS AT GABAB1A SUBUNIT AND USES THEREOF” (UNIVERSITY OF COPENHAGEN, priority 2022, published 2026).
Where two headings read alike, the source gives them in different places. Values belong to the compound of their own block, whether it stands above or below them. Non-standard residues stand in square brackets, D forms with d. Residues, ends and D or L forms follow the SMILES beside them. Sar = CNCC(=O)O

Molecular target: Sushi domains (SD1/2) protein
Test: Fluorescence polarization (FP) competition assay with AJAP-1probe, calculated Ki
Format: binding
Conditions: read-out: Ki (nM) mean ± SEM
How it was run: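 Competition against 25 nM TAMRA-labelled peptide probe binding SD1/2, in PBS pH 7.4 with 1% BSA at rt, read at 530/580 nm. IC50 from sigmoidal dose-response fits, at least triplicate; Ki calculated from IC50 using probe Kd from saturation binding.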

[1] = Table 13, peptides for affinity maturation
[2] = Table 5, elongation and truncation scan of AJAP-1 binding epitope
[3] = Table 11, deep mutational scanning validation variants of AJAP-1WT
[4] = Table 4, truncation and elongation scans of APP epitope
[5] = Table 10, deep mutational scanning validation variants of APPWT

Ki [1]: 182 ± 2 nM
Structure (SMILES): CC[C@H](C)[C@H](NC(=O)[C@H](Cc1ccccc1)NC(=O)[C@H](CCC(=O)O)NC(=O)[C@@H](NC(=O)[C@H](CCC(=O)O)NC(C)=O)[C@@H](C)O)C(=O)N[C@@H](C)C(=O)N[C@@H](Cc1c[nH]c2ccccc12)C(=O)N[C@@H](Cc1ccc(O)cc1)C(=O)NCC(=O)N1CCC[C@H]1C(=O)N[C@@H](C)C(=O)N[C@@H](CC(=O)O)C(=O)N[C@H](C(=O)N[C@@H](CC(=O)O)C(N)=O)[C@@H](C)O (Ac-ETEFIAWYGPADTD-NH2)

Ki [2]: 32 ± 1.4 nM
Structure (SMILES): CC[C@H](C)[C@H](NC(=O)[C@H](Cc1ccccc1)NC(=O)[C@H](CCC(=O)O)NC(=O)[C@@H](NC(=O)[C@H](CCC(=O)O)NC(=O)[C@@H](NC(=O)[C@@H](NC(C)=O)[C@@H](C)O)[C@@H](C)O)[C@@H](C)O)C(=O)N[C@@H](C)C(=O)N[C@@H](Cc1c[nH]c2ccccc12)C(=O)NCC(=O)N1CCC[C@H]1C(=O)N[C@H](C(=O)NCC(=O)N[C@@H](CC(=O)O)C(=O)N[C@@H](CCC(=O)O)C(=O)N[C@@H](CC(=O)O)C(N)=O)[C@@H](C)O (Ac-TTETEFIAWGPTGDED-NH2)

Ki [3]: 40 ± 1 nM
Structure (SMILES): CC[C@H](C)[C@H](NC(=O)[C@H](Cc1ccccc1)NC(=O)[C@H](CCC(=O)O)NC(=O)[C@@H](NC(=O)[C@H](CCC(=O)O)NC(C)=O)[C@@H](C)O)C(=O)N[C@@H](C)C(=O)N[C@@H](Cc1c[nH]c2ccccc12)C(=O)NCC(=O)N1CCC[C@H]1C(=O)N[C@H](C(=O)NCC(=O)N[C@@H](CC(=O)O)C(=O)N[C@@H](Cc1ccc(O)cc1)C(=O)N[C@@H](CC(=O)O)C(N)=O)[C@@H](C)O (Ac-ETEFIAWGPTGDYD-NH2)

Ki [4]: 1754 ± 7 nM
Structure (SMILES): CC(=O)N[C@@H](CCC(=O)O)C(=O)N[C@@H](CCC(=O)O)C(=O)N[C@@H](CC(=O)O)C(=O)N[C@@H](CC(=O)O)C(=O)N[C@@H](CO)C(=O)N[C@@H](CC(=O)O)C(=O)N[C@H](C(=O)N[C@@H](Cc1c[nH]c2ccccc12)C(=O)N[C@@H](Cc1c[nH]c2ccccc12)C(=O)NCC(=O)NCC(N)=O)C(C)C (Ac-EEDDSDVWWGG-NH2)

Ki (Table 3, SPOT hit validation and previously reported peptides): 39 ± 1 nM
Structure (SMILES): CC[C@H](C)[C@H](NC(=O)[C@H](Cc1ccccc1)NC(=O)[C@H](CCC(=O)O)NC(=O)[C@@H](NC(=O)[C@H](CCC(=O)O)NC(C)=O)[C@@H](C)O)C(=O)N[C@@H](C)C(=O)N[C@@H](Cc1c[nH]c2ccccc12)C(=O)NCC(=O)N1CCC[C@H]1C(=O)N[C@H](C(=O)NCC(=O)N[C@@H](CC(=O)O)C(=O)N[C@@H](CCC(=O)O)C(=O)N[C@@H](CC(=O)O)C(=O)N[C@@H](C)C(N)=O)[C@@H](C)O

Ki [4]: 341 ± 10 nM
Structure (SMILES): CC(=O)N[C@@H](CCC(=O)O)C(=O)N[C@@H](CCC(=O)O)C(=O)N[C@@H](CC(=O)O)C(=O)N[C@@H](CC(=O)O)C(=O)N[C@@H](CO)C(=O)N[C@@H](CC(=O)O)C(=O)N[C@H](C(=O)N[C@@H](Cc1c[nH]c2ccccc12)C(=O)N[C@@H](Cc1c[nH]c2ccccc12)C(=O)NCC(=O)NCC(=O)N[C@@H](C)C(=O)N[C@@H](CC(=O)O)C(=O)N[C@H](C(=O)N[C@@H](CC(=O)O)C(N)=O)[C@@H](C)O)C(C)C (Ac-EEDDSDVWWGGADTD-NH2)

Ki [5]: 401 ± 7 nM
Structure (SMILES): CC[C@H](C)[C@H](NC(=O)[C@H](CC(=O)O)NC(=O)[C@H](CO)NC(=O)[C@H](CC(=O)O)NC(=O)[C@H](CC(=O)O)NC(=O)[C@H](CCC(=O)O)NC(C)=O)C(=O)N[C@@H](Cc1c[nH]c2ccccc12)C(=O)N[C@@H](Cc1c[nH]c2ccccc12)C(=O)NCC(=O)NCC(=O)N[C@@H](C)C(=O)N[C@@H](CC(=O)O)C(=O)N[C@H](C(=O)N[C@@H](CC(=O)O)C(N)=O)[C@@H](C)O (Ac-EDDSDIWWGGADTD-NH2)

Ki (Table 9, cells printed in μM): > 62500 nM
Structure (SMILES): CC[C@H](C)[C@H](NC(=O)[C@H](C)NC(=O)[C@H](Cc1c[nH]c2ccccc12)NC(=O)[C@@H]1CCCN1C(C)=O)C(=O)N[C@H](C(=O)N[C@@H](C)C(=O)NCC(=O)N1CCC[C@H]1C(=O)N[C@H](C(=O)N[C@H](C(=O)N[C@@H](CO)C(=O)N[C@@H](CCCNC(=N)N)C(=O)N[C@@H](CCC(=O)O)C(=O)N[C@@H](CC(=O)O)C(N)=O)C(C)C)[C@@H](C)O)C(C)C [PWAIVAGPTVSRED] (Ac-PWAIVAGPTVSRED-NH2)

Ki (Table 9, Ala-, D-amino acids and N-methylation scans of PIANPWT): 1500 ± 34 nM
Structure (SMILES): CC[C@H](C)[C@H](NC(=O)[C@H](C)NC(=O)[C@H](Cc1c[nH]c2ccccc12)NC(=O)[C@@H]1CCCN1C(C)=O)C(=O)N[C@H](C(=O)N[C@@H](Cc1c[nH]c2ccccc12)C(=O)NCC(=O)N[C@@H](C)C(=O)N[C@H](C(=O)N[C@H](C(=O)N[C@@H](CO)C(=O)N[C@@H](CCCNC(=N)N)C(=O)N[C@@H](CCC(=O)O)C(=O)N[C@@H](CC(=O)O)C(N)=O)C(C)C)[C@@H](C)O)C(C)C [PWAIVWGATVSRED] (Ac-PWAIVWGATVSRED-NH2)

Ki [1]: 142 ± 3 nM
Structure (SMILES): CC(=O)N[C@@H](CCC(=O)O)C(=O)N[C@@H](CC(=O)O)C(=O)N[C@@H](CC(=O)O)C(=O)N[C@@H](CO)C(=O)N[C@@H](CC(=O)O)C(=O)N[C@H](C(=O)N[C@@H](Cc1c[nH]c2ccccc12)C(=O)N[C@@H](Cc1c[nH]c2ccccc12)C(=O)N[C@@H](Cc1ccc(O)cc1)C(=O)N(C)CC(=O)N[C@H](C(=O)NCC(=O)N[C@@H](CC(=O)O)C(=O)N[C@@H](CCC(=O)O)C(=O)N[C@@H](CC(=O)O)C(N)=O)[C@@H](C)O)C(C)C (Ac-EDDSDVWWY[Sar]TGDED-NH2)

Ki [4]: > 62500 nM
Structure (SMILES): CC(=O)NCC(=O)NCC(=O)N[C@@H](C)C(=O)N[C@@H](CC(=O)O)C(=O)N[C@H](C(=O)N[C@@H](CC(=O)O)C(=O)N[C@@H](Cc1ccc(O)cc1)C(=O)N[C@@H](C)C(=O)N[C@@H](CC(=O)O)C(N)=O)[C@@H](C)O (Ac-GGADTDYAD-NH2)

Ki [3]: 240 ± 7 nM
Structure (SMILES): CC[C@H](C)[C@H](NC(=O)[C@H](Cc1ccccc1)NC(=O)[C@H](CCC(=O)O)NC(=O)[C@@H](NC(=O)[C@H](CCC(=O)O)NC(C)=O)[C@@H](C)O)C(=O)N[C@@H](C)C(=O)N[C@@H](Cc1c[nH]c2ccccc12)C(=O)N[C@@H](Cc1c[nH]cn1)C(=O)N1CCC[C@H]1C(=O)N[C@H](C(=O)NCC(=O)N[C@@H](CC(=O)O)C(=O)N[C@@H](CCC(=O)O)C(=O)N[C@@H](CC(=O)O)C(N)=O)[C@@H](C)O [ETEFIAWHPTGDED] (Ac-ETEFIAWHPTGDED-NH2)

Ki [5]: 255 ± 11 nM
Structure (SMILES): CC(=O)N[C@@H](CCC(=O)O)C(=O)N[C@@H](CC(=O)O)C(=O)N[C@@H](CC(=O)O)C(=O)N[C@@H](CO)C(=O)N[C@@H](CC(=O)O)C(=O)N[C@H](C(=O)N[C@@H](Cc1c[nH]c2ccccc12)C(=O)N[C@@H](Cc1c[nH]c2ccccc12)C(=O)NCC(=O)NCC(=O)N[C@@H](Cc1ccc(O)cc1)C(=O)N[C@@H](CC(=O)O)C(=O)N[C@H](C(=O)N[C@@H](CC(=O)O)C(N)=O)[C@@H](C)O)C(C)C (Ac-EDDSDVWWGGYDTD-NH2)

Ki (Table 12, deep mutational scanning validation variants of PIANPWT): 302 ± 4 nM
Structure (SMILES): CC[C@H](C)[C@H](NC(=O)[C@@H](NC(=O)[C@H](Cc1c[nH]c2ccccc12)NC(=O)[C@@H]1CCCN1C(C)=O)C(C)C)C(=O)N[C@H](C(=O)N[C@@H](Cc1c[nH]c2ccccc12)C(=O)NCC(=O)N1CCC[C@H]1C(=O)N[C@H](C(=O)N[C@H](C(=O)N[C@@H](CO)C(=O)N[C@@H](CCCNC(=N)N)C(=O)N[C@@H](CCC(=O)O)C(=O)N[C@@H](CC(=O)O)C(N)=O)C(C)C)[C@@H](C)O)C(C)C [PWVIVWGPTVSRED] (Ac-PWVIVWGPTVSRED-NH2)

Ki (Table 16, ncAAs incorporated peptides): 113 ± 2 nM
Structure (SMILES): CCOc1ccc(C[C@H](NC(=O)[C@H](Cc2c[nH]c3ccccc23)NC(=O)[C@H](Cc2c[nH]c3ccccc23)NC(=O)[C@@H](NC(=O)[C@H](CC(=O)O)NC(=O)[C@H](CO)NC(=O)[C@H](CC(=O)O)NC(=O)[C@H](CC(=O)O)NC(=O)[C@H](CCC(=O)O)NC(C)=O)C(C)C)C(=O)NCC(=O)N[C@@H](C)C(=O)N[C@@H](CC(=O)O)C(=O)N[C@H](C(=O)N[C@@H](CC(=O)O)C(N)=O)[C@@H](C)O)cc1 (Ac-EDDSDVWWY(Et)GADTD-NH2)

Ki [4]: 60800 ± 5220 nM
Structure (SMILES): CC(=O)N[C@H](C(=O)N[C@@H](Cc1c[nH]c2ccccc12)C(=O)N[C@@H](Cc1c[nH]c2ccccc12)C(=O)NCC(=O)NCC(=O)N[C@@H](C)C(=O)N[C@@H](CC(=O)O)C(=O)N[C@H](C(=O)N[C@@H](CC(=O)O)C(=O)N[C@@H](Cc1ccc(O)cc1)C(=O)N[C@@H](C)C(=O)N[C@@H](CC(=O)O)C(N)=O)[C@@H](C)O)C(C)C (Ac-VWWGGADTDYAD-NH2)

Ki [3]: 58 ± 4 nM
Structure (SMILES): CC[C@H](C)[C@H](NC(=O)[C@H](Cc1ccccc1)NC(=O)[C@H](Cc1c[nH]cn1)NC(=O)[C@@H](NC(=O)[C@H](CCC(=O)O)NC(C)=O)[C@@H](C)O)C(=O)N[C@@H](C)C(=O)N[C@@H](Cc1c[nH]c2ccccc12)C(=O)NCC(=O)N1CCC[C@H]1C(=O)N[C@H](C(=O)NCC(=O)N[C@@H](CC(=O)O)C(=O)N[C@@H](CCC(=O)O)C(=O)N[C@@H](CC(=O)O)C(N)=O)[C@@H](C)O [ETHFIAWGPTGDED]

Ki [3]: 37 ± 2 nM
Structure (SMILES): CC[C@H](C)[C@H](NC(=O)[C@H](Cc1ccccc1)NC(=O)[C@H](CCC(=O)O)NC(=O)[C@@H](NC(=O)[C@H](CCC(=O)O)NC(C)=O)[C@@H](C)O)C(=O)N[C@@H](C)C(=O)N[C@@H](Cc1c[nH]c2ccccc12)C(=O)NCC(=O)N1CCC[C@H]1C(=O)N[C@H](C(=O)NCC(=O)N[C@@H](CC(=O)O)C(=O)N[C@@H](CCC(=O)O)C(=O)N[C@@H](CCC(N)=O)C(N)=O)[C@@H](C)O (Ac-ETEFIAWGPTGDEQ-NH2)

Ki [2]: 112 ± 1 nM
Structure (SMILES): CC[C@H](C)[C@H](NC(=O)[C@H](Cc1ccccc1)NC(=O)[C@H](CCC(=O)O)NC(C)=O)C(=O)N[C@@H](C)C(=O)N[C@@H](Cc1c[nH]c2ccccc12)C(=O)NCC(=O)N1CCC[C@H]1C(=O)N[C@H](C(=O)NCC(=O)N[C@@H](CC(=O)O)C(=O)N[C@@H](CCC(=O)O)C(=O)N[C@@H](CC(=O)O)C(N)=O)[C@@H](C)O [EFIAWGPTGDED] (Ac-EFIAWGPTGDED-NH2)
